Data: patent US4192896A, “Method of using dialkylphenols in the treatment of mycoplasma diseases” (priority 1979, dated 1980)

Tests used:
[1] = tested on: uninfected hamster tracheal explants; assay: Relative activity (explant viability: epithelial integrity x ciliary vigor) of uninfected hamster tracheal explants exposed to 2,4-DMP (toxicity); format: cell-based, golden hamster; conditions: for Relative activity following days of incubation with 2,4-DMP: uninfected explants, scale 0 to 300
Protocol: Adult golden hamsters (approximately 140 g. male and female) were used as the tissue source. Animals appearing to be disease-free were selected. Tracheas were removed aseptically and sliced into rings. The rings were rinsed and then transfered into sterile Petri dishes containing a shallow layer of minimal essential medium (MEM, with glutamine, NaHCO3, 10% horse serum and 500 units of penicillin G/ml). These organ cultures were incubated for 24 hours at 36° C. in 5% carbon dioxide and then scored for "relative activity" (RA), a measure of explant viability. "Relative Activity" (0 to 300) is the product of the percentage of the epithelial layer which is intact (0 to 100) and the relative vigor of ciliary beating (0 to 3).
Before undertaking further studies the determination of the toxicity of 2,4-DMP toward hamster tracheal explants and Mycoplasma pneumoniae is necessary.

[2] = tested on: M. pneumoniae; assay: Surface morphology of tracheal rings exposed to M. pneumoniae; format: cell-based; conditions: at least 10^-9 M
Protocol: The trachea rings were infected with M. pneumonia, strain PI 1428 (originally obtained from Dr. Robert Chanock, National Institutes of Health, Bethesda, Md.) which was used in the 10th to 12th passage and was grown on G-199 medium. Tracheal explants were infected with logarithmically growing cells using methods described by Gabridge, et al. Except where otherwise noted, groups of from 3 to 6 rings were preincubated for one hour in MEM with or without an appropriate amount of 2,4-dimethylphenol prior to the addition of mycoplasmas. Following exposure to M. pneumoniae for two hours, the rings were rinsed twice in phosphate buffered saline and then placed in a sterile Petri dish containing MEM and, where indicated, the required amount of 2,4-dimethylphenol or 2,4-DMP as used herein. Cultures were incubated at 36° in 5% carbon dioxide and scored daily for RA.
Infection Studies: M. pneumoniae attaches to the surface (as used herein the surface refers to in luminal epithelial lining) of the tracheal tissue within an hour or two following exposure. Decreases in the vigor of ciliary activity and loss of epithelial cells are evident within 24 to 48 hours post-infection. In most cases, little or no ciliary activity remains by the sixth or seventh day.

[3] = tested on: M. pneumoniae; assay: Growth of logarithmically growing cultures of M. pneumoniae in liquid culture with 2,4-DMP (CFU/ml); format: cell-based, Mycoplasma pneumoniae, strain PI 1428

Cc1ccc(O)c(C)c1 [2,4-DMP, 2,4-dimethylphenol]
reductions in RAs of uninfected explants ([1]; 10^-3 and 10^-4 M): Significant reductions in RAs
overt cytotoxic effects in uninfected rings ([1]; 10^-5 M or less): no overt cytotoxic effects
Relative activity following days of incubation with 2,4-DMP ([1]; 10^-3 moles/liter, day 1): 210 ± 19
Relative activity following days of incubation with 2,4-DMP ([1]; 10^-3 moles/liter, day 2): 155 ± 12
Relative activity following days of incubation with 2,4-DMP ([1]; 10^-3 moles/liter, day 3): 105 ± 16
Relative activity following days of incubation with 2,4-DMP ([1]; 10^-3 moles/liter, day 4): 75 ± 16
Relative activity following days of incubation with 2,4-DMP ([1]; 10^-3 moles/liter, day 5): 55 ± 12
Relative activity following days of incubation with 2,4-DMP ([1]; 10^-3 moles/liter, day 6): 50 ± 16
Relative activity following days of incubation with 2,4-DMP ([1]; 10^-3 moles/liter, day 7): 50 ±16
Relative activity following days of incubation with 2,4-DMP ([1]; 10^-4 moles/liter, day 1): 255 ± 16
Relative activity following days of incubation with 2,4-DMP ([1]; 10^-4 moles/liter, day 2): 240 ± 33
Relative activity following days of incubation with 2,4-DMP ([1]; 10^-4 moles/liter, day 3): 200 ± 49
Relative activity following days of incubation with 2,4-DMP ([1]; 10^-4 moles/liter, day 4): 160 ± 45
Relative activity following days of incubation with 2,4-DMP ([1]; 10^-4 moles/liter, day 5): 150 ± 27
Relative activity following days of incubation with 2,4-DMP ([1]; 10^-4 moles/liter, day 6): 140 ± 24
Relative activity following days of incubation with 2,4-DMP ([1]; 10^-4 moles/liter, day 7): 135 ± 16
Relative activity following days of incubation with 2,4-DMP ([1]; 10^-5 moles/liter, day 1): 265 ± 12
Relative activity following days of incubation with 2,4-DMP ([1]; 10^-5 moles/liter, day 2): 270 ± 0
Relative activity following days of incubation with 2,4-DMP ([1]; 10^-5 moles/liter, day 3): 264 ± 13
Relative activity following days of incubation with 2,4-DMP ([1]; 10^-5 moles/liter, day 4): 270 ± 0
Relative activity following days of incubation with 2,4-DMP ([1]; 10^-5 moles/liter, day 5): 264 ± 13
Relative activity following days of incubation with 2,4-DMP ([1]; 10^-5 moles/liter, day 6): 258 ± 16
Relative activity following days of incubation with 2,4-DMP ([1]; 10^-5 moles/liter, day 7): 252 ± 16
surface morphology of rings exposed to M. pneumoniae compared with uninfected controls [2]: indistinguishable from uninfected controls
CFU/ml following days of culture ([3]; 10^-3 moles/liter, day 0): 2 × 10^4 CFU/ml
CFU/ml following days of culture ([3]; 10^-3 moles/liter, day 1): 5 × 10^4 CFU/ml
CFU/ml following days of culture ([3]; 10^-3 moles/liter, day 2): 6.3 × 10^4 CFU/ml
CFU/ml following days of culture ([3]; 10^-3 moles/liter, day 3): 6.5 × 10^4 CFU/ml
CFU/ml following days of culture ([3]; 10^-3 moles/liter, day 4): 6.7 × 10^4 CFU/ml
CFU/ml following days of culture ([3]; 10^-3 moles/liter, day 5): 4.1 × 10^4 CFU/ml
CFU/ml following days of culture ([3]; 10^-3 moles/liter, day 6): 3.3 × 10^4 CFU/ml
CFU/ml following days of culture ([3]; 10^-3 moles/liter, day 7): 1.5 × 10^4 CFU/ml
CFU/ml following days of culture ([3]; 10^-5 moles/liter, day 0): 2 × 10^4 CFU/ml
CFU/ml following days of culture ([3]; 10^-5 moles/liter, day 1): 1.2 × 10^5 CFU/ml
CFU/ml following days of culture ([3]; 10^-5 moles/liter, day 2): 7.5 × 10^6 CFU/ml
CFU/ml following days of culture ([3]; 10^-5 moles/liter, day 3): 2.5 × 10^7 CFU/ml
CFU/ml following days of culture ([3]; 10^-5 moles/liter, day 4): 6.0 × 10^7 CFU/ml
CFU/ml following days of culture ([3]; 10^-5 moles/liter, day 6): 1.5 × 10^7 CFU/ml
CFU/ml following days of culture ([3]; 10^-5 moles/liter, day 7): 4.3 × 10^6 CFU/ml
CFU/ml following days of culture ([3]; 10^-8 moles/liter, day 0): 2 × 10^4 CFU/ml
CFU/ml following days of culture ([3]; 10^-8 moles/liter, day 1): 1.5 × 10^5 CFU/ml
CFU/ml following days of culture ([3]; 10^-8 moles/liter, day 2): 7.2 × 10^6 CFU/ml
CFU/ml following days of culture ([3]; 10^-8 moles/liter, day 3): 2.4 × 10^7 CFU/ml
CFU/ml following days of culture ([3]; 10^-8 moles/liter, day 4): 6.3 × 10^7 CFU/ml
CFU/ml following days of culture ([3]; 10^-8 moles/liter, day 5): 5.2 × 10^7 CFU/ml
CFU/ml following days of culture ([3]; 10^-8 moles/liter, day 6): 1.1 × 10^7 CFU/ml
CFU/ml following days of culture ([3]; 10^-8 moles/liter, day 7): 4.2 × 10^6 CFU/ml
effect on mycoplasmal growth ([3]; higher concentrations (10^-3 M)): inhibit mycoplasmal growth
